The data set can be described thus: Determination of bioavailability (blood levels, ex-vivo bioassay). The class given is in vivo. To be noted: mice. As to the method:
The compounds of this invention were administered i.p. or p.o. between 1 and 50 mg/kg to mice: the blood levels then were determined by an ex-vivo bioassay according to Wang X. et al. (Cancer Res., 54, 4726-4728, 1994). The introduction of an OH group systematically increases the bioavailability of the products.

Where [1] appears, read: mouse, blood, po, 50 mg/kg, 50 mg/kg p.o., read-out: blood level, P.o. method, 10′.
[2] abbreviates: mouse, blood, po, 50 mg/kg, 50 mg/kg p.o., read-out: blood level, P.o. method, 20′.
Setting [3] is: mouse, blood, po, 50 mg/kg, 50 mg/kg p.o., read-out: blood level, P.o. method, 40′.
Where [4] appears, read: mouse, blood, ip, 50 mg/kg, 50 mg/kg i.p., read-out: blood level, I.p. method, 10′.
Where [5] appears, read: mouse, blood, ip, 50 mg/kg, 50 mg/kg i.p., read-out: blood level, I.p. method, 20′.
The mark [6] stands for this setting: mouse, blood, ip, 50 mg/kg, 50 mg/kg i.p., read-out: blood level, I.p. method, 40′.
Where [7] appears, read: mouse, blood, po, 50 mg/kg, 50 mg/kg p.o., read-out: blood level, P.o. method, 1 h.
Setting [8] is: mouse, blood, po, 50 mg/kg, 50 mg/kg p.o., read-out: blood level, P.o. method, 24 h.
Setting [9] is: mouse, blood, ip, 50 mg/kg, 50 mg/kg i.p., read-out: blood level, I.p. method, 1 h.
[10] abbreviates: mouse, blood, ip, 50 mg/kg, 50 mg/kg i.p., read-out: blood level, I.p. method, 24 h.

These results are taken from patent publication US6344457B1, “Amino acid derivatives inhibiting extracellular matrix metalloproteinase and TNF alpha release” (Chiesi Farmaceutici S.p.A., priority 1997, dated 2002).

Structures are written as SMILES. Read-outs that look alike come from different tables or passages of the source.

Consider `CNC(=O)C(Cc1ccc(Cl)c(Cl)c1)NC(=O)[C@](O)(CC(C)C)[C@H](C)C(=O)NO` (stereo partly drawn), for which, under setting [1], the concentration at 10 min was determined as 600 ng/mL. Besides, the concentration at 20 min under setting [2] was 300 ng/mL. Further, the concentration at 40 min under setting [3] came out at 600 ng/mL.

For `CNC(=O)[C@@H](NC(=O)[C@H](CC(C)C)[C@H](O)C(=O)NO)C(C)C`, the concentration at 10 min stood at 20000 ng/mL under setting [4] and 2200 ng/mL under setting [1]. The concentration at 20 min amounted to 9000 ng/mL under setting [5] and 4300 ng/mL under setting [2]. Under setting [6], the concentration at 40 min was 47000 ng/mL. For the same compound, for the setting “mouse, blood, po, 50 mg/kg, 50 mg/kg p.o., 30′, read-out: blood level, P.o. method, 30′”, the concentration at 30 min came to 300 ng/mL. Also, the concentration at 1 h under setting [7] stood at 500 ng/mL. The concentration at 24 h under setting [8] turned out to be 170 ng/mL.

Consider `CNC(=O)[C@H](Cc1ccc(OC)cc1)NC(=O)C(O)(CC(C)C)[C@H](O)C(=O)NO` (stereo partly drawn), for which the concentration at 10 min reads like this: under setting [4], 20000 ng/mL; under setting [1], 10000 ng/mL. Further, the concentration at 20 min was determined as 0 ng/mL under setting [5] and 9000 ng/mL under setting [2]. For the same compound, under setting [6], the concentration at 40 min stood at 4000 ng/mL. Moreover, the concentration at 1 h under setting [7] came out at 9000 ng/mL. The concentration at 24 h under setting [8] was determined as 9000 ng/mL.

`CNC(=O)[C@@H](NC(=O)C(O)(CC(C)C)[C@H](C)C(=O)NO)C(C)(C)C` (stereo partly drawn): the concentration at 10 min under setting [4] is 56000 ng/mL. Besides, under setting [5], the concentration at 20 min was found to be 22000 ng/mL. Besides, the concentration at 1 h under setting [9] is 3500 ng/mL.

On to `CNC(=O)[C@H](Cc1ccc(OC)cc1)NC(=O)[C@H](CC(C)C)[C@H](C)C(=O)NO` [drawing 113], for which the concentration at 10 min by setting is: under setting [4], 200 ng/mL; under setting [1], less than 100 ng/mL. The concentration at 20 min is less than 100 ng/mL under setting [5] and less than 100 ng/mL under setting [2]. Moreover, the concentration at 40 min runs as follows: under setting [6], less than 100 ng/mL; under setting [3], less than 100 ng/mL.

For the compound `CNC(=O)[C@H](Cc1ccc(OC)cc1)NC(=O)[C@](O)(CC(C)C)[C@H](C)C(=O)NO` [drawing 114], the concentration at 10 min by setting is: under setting [4], 23000 ng/mL; under setting [1], 4200 ng/mL. In addition, the concentration at 20 min worked out at 8700 ng/mL under setting [5] and 2100 ng/mL under setting [2]. The concentration at 1 h under setting [9] was determined as 770 ng/mL and the concentration at 1 h under setting [7] was 580 ng/mL. The concentration at 24 h is less than 500 ng/mL under setting [10] and less than 500 ng/mL under setting [8].

With `CC(C)C[C@@](O)(C(=O)N[C@@H](Cc1ccc(Cl)cc1)C(=O)NCCN1CCOCC1)[C@H](C)C(=O)NO` [drawing 115], under “50 mg/kg i.p.”, the “blood level, I.p. method, 10′” value worked out at 30000 ng/mL and the “blood level, I.p. method, 20′” value was found to be 27000 ng/mL. For the setting “50 mg/kg p.o.”, the “blood level, P.o. method, 10′” value was found to be 2300 ng/mL; the “blood level, P.o. method, 20′” value was 1200 ng/mL; the “blood level, P.o. method, 24 h” value is 900 ng/mL. Further, the concentration at 40 min under setting [6] was 18000 ng/mL.

Regarding `CC(C)C[C@@](O)(C(=O)N[C@@H](Cc1ccc(Cl)cc1)C(=O)NCCN1CCOCC1)[C@H](C)C(=O)NO` [drawing 116], under “50 mg/kg i.p.”, the “blood level, I.p. method, 10′” value was 87000 ng/mL and the “blood level, I.p. method, 20′” value turned out to be 13000 ng/mL. In addition, for the setting “50 mg/kg p.o.”, the “blood level, P.o. method, 10′” value stood at 5100 ng/mL; the “blood level, P.o. method, 20′” value turned out to be 3100 ng/mL; the “blood level, P.o. method, 24 h” value was less than 300 ng/mL. The concentration at 1 h under setting [9] was determined as 1700 ng/mL. Moreover, the concentration at 24 h under setting [10] worked out at 300 ng/mL. The concentration at 1 h under setting [7] was determined as 400 ng/mL.

As to `CC(C)C[C@@](O)(C(=O)N[C@@H](Cc1ccc(Cl)c(Cl)c1)C(=O)NCCN1CCOCC1)[C@H](C)C(=O)NO` [drawing 118], where the note is “50 mg/kg i.p.”, the “blood level, I.p. method, 10′” value stood at 700 ng/mL; the “blood level, I.p. method, 20′” value was determined as 500 ng/mL; the “blood level, I.p. method, 40′” value was determined as 100 ng/mL. For the setting “50 mg/kg p.o.”, the “blood level, P.o. method, 10′” value stood at 100 ng/mL and the “blood level, P.o. method, 20′” value amounted to 100 ng/mL.

On to `CC(C)C[C@@](O)(C(=O)N[C@@H](Cc1ccc(Cl)c(Cl)c1)C(=O)NCCN1CCOCC1)[C@H](C)C(=O)NO` [drawing 119], for which, where the note is “50 mg/kg i.p.”, the “blood level, I.p. method, 10′” value was found to be 6000 ng/mL; the “blood level, I.p. method, 20′” value was found to be 5000 ng/mL; the “blood level, I.p. method, 40′” value turned out to be 1800 ng/mL. Moreover, under “50 mg/kg p.o.”, the “blood level, P.o. method, 10′” value is 1250 ng/mL and the “blood level, P.o. method, 20′” value was found to be 800 ng/mL. Also, the concentration at 1 h under setting [7] came out at 450 ng/mL.
